Source: patent US12533403B2, “Peptide conjugated particles” (NORTHWESTERN UNIVERSITY, priority 2013, dated 2026)
“Also recorded” adds a separate entry of the source. No end group written: not given here.

What was measured:
[1] = test system: Relapsing Experimental Autoimmune Encephalitis (R-EAE); assay: Treatment of R-EAE at day 10 by different routes of administration; format: in vivo, mice
Method: Experiments were conducted during development of embodiments of the present invention to investigate the ability of the PLG-PLP139-151 particles to treat disease rather than prevent disease, and to determine whether the route of administration affected the development of disease. Mice were immunized at day 0 with PLP139-151 and an adjuvant. Mice normally have maximal clinical scores at day 12-14. In this model, the mice were treated at day 10 with the PLG-PLP139-151 particles or with control PLG-OVA323-339 particles either via intravenous (iv) administration, intraperitoneal (ip) administration, subcutaneous (sc) administration, or orally. […] This is in contrast to animals treated with PLP139-151 polystyrene particles, whereby >70% of animals where observed to die from anaphylaxis.

[2] = test system: adoptive EAE (PLP139-151-activated blasts); assay: Therapeutic tolerance in adoptive transfer (and active) EAE; format: in vivo, SJL/J mice
Method: Experiments were conducted during development of embodiments of the present invention to investigate a second model of active disease termed adoptive transfer. Rather than immunizing the animals with the peptide, the lymphocytes from the spleen of mice with active disease were transferred to a recipient, who would subsequently develop disease. Experiments were conducted during development of embodiments of the present invention to characterize the ability of the PLG nanoparticles to deactivate the adoptively transferred activated effector cells.
Therapeutic tolerance induced by PLP139-151-PLG particles was compared in active and adoptive EAE. Adoptive EAE was induced in six to eight-week old female SJL/J mice by adoptive transfer of 2.5×10^6 PLP139-151-activated blasts. Mice were injected iv with PLP139-151 (squares) or OVA323-339 (circles) peptide coupled to 500 nm PLG nanoparticles 2 days (FIG. 14A), 14 days (FIG. 14C), 18 days (FIG. 14E), or 21 days (FIG. 14F) following disease induction. Clinical disease scores were compared to those following treatment with antigen-coupled splenocytes (FIG. 14A). Brain and spinal cord were collected from PLP139-151- or OVA323-339-tolerized mice for histological analysis on day 42. Sections from mice from panel A were stained for PLP protein and CD45 (FIG. 14B).
Mice were injected iv with PLP139-151-SP, PLP139-151-PLG, or OVA323-339-SP, or OVA323-339-PLG peptide coupled to 500 nm nanoparticles 10 days (FIG. 15A) or 2 days (FIG. 15B) following disease induction and the mean clinical score was determined.
SJL/J mice were injected i.v. with 500 nm PLG nanoparticles coupled with PLP139-151 (squares) or OVA323-339 (circles) 2 days following EAE induction by adoptive transfer. At the peak of disease (day 14) brains and spinal cords were removed and the number of lymphocytes (FIG. 16B), APCs (FIG. 16C), microglia (FIG. 16D), peripheral dendritic cells (FIG. 16E), myeloid dendritic cells (FIG. 16F) and macrophages (FIG. 16G) were enumerated by flow cytometry. The gating strategy for these populations is depicted in (FIG. 16A). CNS cell preparations were stimulated with PMA and ionomycin for 5 h prior to intracellular staining for IL-17A and IFN-γ (FIG. 16H).
To test the effect of treatment with an anti-PD-1 antibody on PLP139-151 induced tolerance in mice with adoptive EAE, on Day 0, mice received 3×10^6 PLP139-151 activated T-cell blasts via intravenous administration. On Day 2, they received PLP139-151 or OVA323-339 encapsulated in PLG particles via intravenous administration with either PBS or an anti-PD-1 antibody. On days 4, 6, 8, 10, and 12 all animals received either 250 μg anti-PD-1 antibody or PBS. […]

[3] = test system: cervical spinal cord of R-EAE mice; assay: Spinal cord histology and in vivo imaging in EAE
Method: An additional therapeutic tolerance strategy was performed by delivering PLP139-151-PLG or OVA323-339 PLG to mice. […] Mice were treated with PLP-PLG or OVA323-339-PLG and the tissue was retrieved at day 40. The cervical spinal cord was isolated and sectioned to investigate the immune response within the CNS, which underlies the pathology of R-EAE and multiple sclerosis.
Animals were treated with Complete Freund's Adjuvant (CFA), OVA323-339 PLG particles, or PLP139-151-PLG particles. The clinical scores and percent incidence of EAE were determined (FIG. 10B) and the spinal cords observed via in vivo imaging (FIGS. 10A and 11). […] The bar graphs give the numerical numbers to the signal strength shown in the brain and SC scans.

[4] = test system: PLP139-151/CFA-induced EAE; assay: Anaphylaxis on iv injection during EAE remission; format: in vivo, SJL/J mice; settings: iv on day 21 (remission) relative to disease induction
Method: EAE was induced in six to eight week old female SJL/J mice by subcutaneous injection of PLP139-151 in CFA, and development of clinical disease was monitored and recorded (FIG. 5B). On day 21 relative to disease induction, mice were given iv injections of soluble PLP139-151 (clear squares), soluble OVA323-339 (clear circles), or the same peptides coupled to PLG nanoparticles (solids). Temperature of animals was monitored and recorded every 10 minutes for 1 hour following injection (FIG. 5A).

[5] = test system: Relapsing Experimental Autoimmune Encephalitis (R-EAE); assay: Prophylactic tolerance induction in PLP139-151/CFA-induced R-EAE; format: in vivo, SJL/J mice; settings: for clinical score (disease induction): 500 nm particles given on day −7 relative to immunization, N=5
Th1 and Th17 responses = assay: Induction of antigen-specific Th1 and Th17 responses (draining lymph node cells); format: in vivo, BALB/c mice; settings: particles iv Day −7; measured at Day 10
Method: To determine whether administration of antigen-coupled particles inhibit induction of T-helper cells, either MOG35-55-PLG or OVA323-339-PLG particles were administered intravenously to BALB/c mice at Day −7. On Day 0, OVA323-339-PLG particles and Complete Freund's Adjuvant (CFA) were administered subcutaneously to the mice. The animals were re-stimulated with either MOG35-55-PLG or OVA323-339-PLG particles on Day 10 and the draining lymph node cells were isolated. The CPM and levels of IL-17, GM-CSF, IFN-γ, IL-10, and IL-4 were measured at Day 10.

[6] = test system: spontaneous Type 1 diabetes; assay: Spontaneous type 1 diabetes in NOD mice; format: in vivo; settings: iv at 6, 8, and 10 weeks of age; diabetes = blood glucose >250 mg/dL
Method: NOD mice were treated with either BSA (N=22) or insulin (N=23) coupled PLG particles via intravenous administration at 6, 8, and 10 weeks of age. The mice were then assayed for the development of diabetes which was defined as blood glucose >250 mg/dL.

[7] = test system: OVA/Alum pre-sensitized mice; assay: Anaphylaxis-induced temperature drop in OVA/Alum pre-sensitized animals; format: in vivo; settings: iv on day 28; within 1 hour of delivery
Method: Due to the presence of active disease, anaphylaxis to the antigens is a concern, which could result in immediate mortality, and has been described with polystyrene bound particles. Anaphylaxis is associated with a significant drop in body temperature. To test whether intravenous administration of OVA-PLG induces an anaphylaxis-induced temperature drop in pre-sensitized animals, mice were immunized at day 0 with 10 μg OVA/Alum via intraperitoneal injection. On day 14, the mice were again immunized with 10 μg OVA/Alum via intraperitoneal injection, and then tolerized with OVA-PLG administered intravenously on day 21. On day 28, the mice were then tolerized with either OVA-PLG particles or OVA via intravenous administration.

**Q.** How did the mean clinical scores ([1]; administered intravenously, at most time points) turn out when “PLP139-151-PLG: immunodominant proteolipid protein PLP139-151 epitope coupled to 500 nm PLG nanoparticles” was run?
**A.** The mean clinical scores was 0.

**Q.** What about the “efficiency of tolerance by route of administration” value ([1]; treated at day 10, iv, ip, sc or oral) of the same molecule?
**A.** Its value is “most efficient when the PLG-PLP139-151 particles are administered either intravenously or intraperitoneally”.

**Q.** And the “tolerance induction (mean clinical score) in active and adoptive EAE” value ([2]; 500 nm particles iv after disease induction (10 days active, 2 days adoptive))?
**A.** The value was “tolerance is induced; also recorded: reduced disease; also recorded: induces tolerance”.

**Q.** What about the “infiltration of central nervous system immune cells” value ([2]; iv 2 days after adoptive transfer, brains and spinal cords at day 14, flow cytometry) of the same molecule?
**A.** Its value is “drastically reduced”.

**Q.** And the mean clinical score ([2]; treated at day 2, all but two time points through day 40)?
**A.** The mean clinical score was 0.

**Q.** What about the “mean clinical score at the other two time points” value ([2]; treated at day 2, through day 40) of the same molecule?
**A.** Its value is 0.25.

**Q.** And the “blood brain barrier (BBB) disruption and macrophage activation in the spinal cord” value ([3]; in vivo imaging (Angiosense, prosense))?
**A.** Its value is “inhibits blood brain barrier (BBB) disruption and macrophage activation”.

**Q.** And the “immune cell infiltration, inflammation and demyelination of the spinal cord” value ([3]; tissue retrieved at day 40)?
**A.** The value was “inhibits cervical spinal cord inflammation and demyelination; also recorded: reduction in immune cell infiltration within the spinal cord”.

**Q.** What about the “staining for CD45, CD4, and CD11b in spinal cord” value ([3]; tissue retrieved at day 40) of the same molecule?
**A.** The value was “minimal staining”.

**Q.** What about the anaphylaxis-associated mortality [4] of the same molecule?
**A.** Its anaphylaxis-associated mortality is “does not result in any anaphylaxis-associated mortality”.

**Q.** What about the “clinical scores between days 20 and 30” value ([5]; 500 nm particles given on day −7, days 20 to 30) of the same molecule?
**A.** The value was “under 1”.

**Q.** What about the “clinical score (disease induction)” value ([5]; listed as PLG-PLP139-151) of the same molecule?
**A.** The value was “specifically prevented EAE development”.

**Q.** What about the “clinical score (disease induction)” value ([5]; listed as PLP139-151-PLGA) of the same molecule?
**A.** The value was 0.

**Q.** What about the “mean clinical score with anti-CD25 antibody compared with control IgG antibody” value ([5]; anti-CD25 on Day −9, particles plus antibody on Day −7) of the same molecule?
**A.** The value was “greater mean clinical score”.

**Q.** And the “delayed-type hypersensitivity (DTH) responses to immunizing PLP139-151 epitope” value ([5]; prophylactic treatment on day −7)?
**A.** Its value is “lack of delayed-type hypersensitivity (DTH) responses”.

**Q.** What about the “induction of R-EAE by type of particle (mean clinical score, mean cumulative score)” value ([5]; treated on day −7, N=5 per group) of the same molecule?
**A.** The value was “more effective in down-regulating induction of R-EAE”.

**Q.** Which “staining for CD45, CD4, and CD11b in spinal cord” value ([3]; tissue retrieved at day 40) does the source give for “OVA323-339-PLG: control peptide OVA323-339 coupled to PLG particles (KISQAVHAAHAEINEAG; also: coupled to PLG particles; UniProt P01012 323-339, looked up, fragment) [reference compound]” here?
**A.** The value was “positive staining”.

**Q.** What about the “clinical score (disease induction)” value [5] of the same molecule?
**A.** The value was “did not prevent disease induction”.

**Q.** And the “Th1 and Th17 responses (CPM, IL-17, GM-CSF, IFN-γ, IL-10, IL-4)” value (Th1 and Th17 responses)?
**A.** The value was “inhibited the Th1 and Th17 responses”.

**Q.** How did the “percentage of mice that did not develop diabetes over 300 days” value [6] turn out when “BSA coupled PLG particles: BSA coupled PLG particles (control) [reference compound]” was run?
**A.** Its value is 22.7%.

**Q.** How did the “percentage of mice that did not develop diabetes over 300 days” value [6] turn out when “insulin coupled PLG particles: insulin coupled PLG particles” was run?
**A.** Its value is 69.6%.

**Q.** Which “animals observed to die from anaphylaxis” value ([1]; mouse, in vivo) does the source give for “PLP139-151 polystyrene particles: PLP139-151 bound to polystyrene particles (CHCLGKWLGHPDK; cysteine pairing not given here; also: bound to polystyrene particles; UniProt P60202 139-151, looked up, fragment) [reference compound]” here?
**A.** Its value is > 70%.

B1: soluble OVA: soluble ovalbumin given intravenously (protein, UniProt P01012 2-386, looked up)
Ovalbumin: GSIGAASMEFCFDVFKELKVHHANENIFYCPIAIMSALAMVYLGAKDSTRTQINKVVRFDKLPGFGDSIEAQCGTSVNVHSSLRDILNQITKPNDVYSFSLASRLYAEERYPILPEYLQCVKELYRGGLEPINFQTAADQARELINSWVESQTNGIIRNVLQPSSVDSQTAMVLVNAIVFKGLWEKAFKDEDTQAMPFRVTEQESKPVQMMYQIGLFRVASMASEKMKILELPFASGTMSMLVLLPDEVSGLEQLESIINFEKLTEWTSSNVMEERKIKVYLPRMKMEEKYNLTSVLMAMGITDVFSSSANLSGISSAESLKISQAVHAAHAEINEAGREVVGSAEAGVDAASVSEEFRADHPFLFCIKHIATNAVLFFGRCVSP
**Q.** How did the body temperature [7] turn out when B1 was run?
**A.** The body temperature was “decrease in temperature”.
